The series in a line: recombinant barcode read abundance after kanamycin selection (control-corrected) (log10(CPM+1)); higher = more efficient recombination; sequences stand for … in AGTGCAGAGAAAATCGGCCAGTTTTCTCTGCCTGCAGTCCGCATGCCGT…AGATTTATGCAGCGGACTGCCTTTCTCCCAAAGTGATAAACCGGACAGTATCATGGACCGGTTTTCCCGGTAATCCGTATTTGCAAGGTTGGTTTCACT; site = the 11-nt target. In outline:
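Recombination efficiency draws on barcodes counted at recombinant junctions in a pooled E. coli screen of targets paired with IS621 bridge RNA target-binding loops. The counts were converted to counts per million, averaged and corrected against the chloramphenicol/ampicillin LB agar control, then reported as log10(CPM+1). Selection plates held chloramphenicol/ampicillin/kanamycin with 0.1 mM IPTG, with two replicates per condition.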
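Also: IS621 recombinase and bridge RNA in Escherichia coli cells.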

Consider “TACCACTCTTGGGTTCTAACCTGTTGCCT (site CACCACTCTAG)”, for which the “recombinant barcode read abundance (log10)” value worked out at 0.887.
On to “TACCACTCTTGGGTTCTAACCTGTTGCCT (site GACCACTCTAG)”, for which the “recombinant barcode read abundance (log10)” value worked out at 0.13.
The value for “TACCACTCTTGGGTTCTAACCTGTTGCCT (site TACCACTCTAG)” was 2.24; that for “TACCAGTCTTGGGTTCTAACCTGTTGCTT (site TACCAGTCTAA)” was 1.74.
Consider “TACCAGTCTTGGGTTCTAACCTGTTGCTT (site TACCCGTCTAA)”, for which the “recombinant barcode read abundance (log10)” value amounted to 0.0102.
Turning to “TACCAGTCTTGGGTTCTAACCTGTTGCTT (site TACCGGTCTAA)”, the “recombinant barcode read abundance (log10)” value came out at 0.293.
For “TACCAGTCTTGGGTTCTAACCTGTTGCTT (site TACCTGTCTAA)” the value was 0.111.
“TACCCGCCTTGGGTTCTAACCTGTTGCTA (site TACCCGCCTTA)”: the “recombinant barcode read abundance (log10)” value came to 0.59.
Take “TACCCGCCTTGGGTTCTAACCTGTTGCTA (site TACCCTACTTA)”: the “recombinant barcode read abundance (log10)” value was 0.066.
On to “TACCCGTCTTGGGTTCTAACCTGTTGCTT (site TACCAGTCTAA)”, for which the “recombinant barcode read abundance (log10)” value was found to be 0.
Regarding “TACCCGTCTTGGGTTCTAACCTGTTGCTT (site TACCCGTCTAA)”, the “recombinant barcode read abundance (log10)” value was 0.399.
For “TACCCGTCTTGGGTTCTAACCTGTTGCTT (site TACCGGTCTAA)” the value was 0.168; for “TACCCGTCTTGGGTTCTAACCTGTTGCTT (site TACCTGTCTAA)”, 0.0134; for “TACCGGCCTTGGGTTCTAACCTGTTGCTT (site TACCGGACTAC)”, 0.0691.
On to “TACCGGCCTTGGGTTCTAACCTGTTGCTT (site TACCGGCCTAA)”, for which the “recombinant barcode read abundance (log10)” value stood at 0.444.
For “TACCTACCTTGGGTTCTAACCTGTTGCGA (site ATAACTACTAA)”, the “recombinant barcode read abundance (log10)” value was 0.0536.
For “TACCTACCTTGGGTTCTAACCTGTTGCGA (site TACCTACCTTC)”, the “recombinant barcode read abundance (log10)” value stood at 1.92.
The value for “TACCTATCTTGGGTTCTAACCTGTTGCGT (site TACCTAGCTAC)” was 0.0617; that for “TACCTATCTTGGGTTCTAACCTGTTGCGT (site TACCTATCTAC)” was 1.83.
The value for “TACGAACCTTGGGTTCTAACCTGTTGCGT (site TACGAACCTAC)” was 2.94; that for “TACGAACCTTGGGTTCTAACCTGTTGCGT (site TAGGAGCCTAC)” was 0.335.
Regarding “TACGCCTCTTGGGTTCTAACCTGTTGCTA (site TACGCCTCTTA)”, the “recombinant barcode read abundance (log10)” value was found to be 1.31.
Consider “TACGCCTCTTGGGTTCTAACCTGTTGCTA (site TGCGCCTCTCA)”, for which the “recombinant barcode read abundance (log10)” value amounted to 0.299.
The value for “TACGGGGCTTGGGTTCTAACCTGTTGCCT (site TACGAGGCTAG)” was 0.166; that for “TACGGGGCTTGGGTTCTAACCTGTTGCCT (site TACGCGGCTAG)” was 0.139; that for “TACGGGGCTTGGGTTCTAACCTGTTGCCT (site TACGGGGCTAG)” was 0.572.
The value for “TACGGGGCTTGGGTTCTAACCTGTTGCCT (site TACGTGGCTAG)” was 0.414; that for “TACGGGTCTTGGGTTCTAACCTGTTGCCT (site AAGGGGTCTAG)” was 0.0993.
For “TACGGGTCTTGGGTTCTAACCTGTTGCCT (site TACGGGTCTAG)” the value was 1.16; for “TACTAAACTTGGGTTCTAACCTGTTGCCT (site TACTAAACTAG)”, 0.267; for “TACTAAACTTGGGTTCTAACCTGTTGCCT (site TACTCAACTAG)”, 0.0276.
For the sequence “TACTAAACTTGGGTTCTAACCTGTTGCCT (site TACTGAACTAG)”, the “recombinant barcode read abundance (log10)” value was 0.0606.
Regarding “TACTAAACTTGGGTTCTAACCTGTTGCCT (site TACTTAACTAG)”, the “recombinant barcode read abundance (log10)” value was determined as 0.00687.
For “TACTAAGCTTGGGTTCTAACCTGTTGCAT (site TACTAAGCTAA)” the value was 0.149.
“TACTAAGCTTGGGTTCTAACCTGTTGCAT (site TACTAAGCTAC)”: the “recombinant barcode read abundance (log10)” value worked out at 0.0997.
The value for “TACTAAGCTTGGGTTCTAACCTGTTGCAT (site TACTAAGCTAG)” was 0.274; that for “TACTAAGCTTGGGTTCTAACCTGTTGCAT (site TACTAAGCTAT)” was 0.523.
The value for “TACTAAGCTTGGGTTCTAACCTGTTGCGT (site TACTAAGCTAA)” was 0.238.
For “TACTAAGCTTGGGTTCTAACCTGTTGCGT (site TACTAAGCTAC)” the value was 1.1.
As to “TACTAAGCTTGGGTTCTAACCTGTTGCGT (site TACTAAGCTAG)”, the “recombinant barcode read abundance (log10)” value stood at 0.122.
For “TACTAAGCTTGGGTTCTAACCTGTTGCGT (site TACTAAGCTAT)” the value was 0.149; for “TACTCAACTTGGGTTCTAACCTGTTGCCT (site TACTAAACTAG)”, 0.376.
Regarding “TACTCAACTTGGGTTCTAACCTGTTGCCT (site TACTCAACTAG)”, the “recombinant barcode read abundance (log10)” value turned out to be 0.0463.
In the case of “TACTCAACTTGGGTTCTAACCTGTTGCCT (site TACTGAACTAG)”, the “recombinant barcode read abundance (log10)” value is 0.0105.
As to “TACTCAACTTGGGTTCTAACCTGTTGCCT (site TACTTAACTAG)”, the “recombinant barcode read abundance (log10)” value turned out to be 0.
The value for “TACTCACCTTGGGTTCTAACCTGTTGCTT (site ACTGGTTCTCG)” was 0.022.
The value for “TACTCACCTTGGGTTCTAACCTGTTGCTT (site TACTCACCTAA)” was 0.287; that for “TACTGATCTTGGGTTCTAACCTGTTGCCT (site TAATGATCTAG)” was 0.0666; that for “TACTGATCTTGGGTTCTAACCTGTTGCCT (site TACTGATCTAG)” was 0.461.
As for “TACTGATCTTGGGTTCTAACCTGTTGCCT (site TAGTGATCTAG)”, the “recombinant barcode read abundance (log10)” value turned out to be 0.0404.
For “TACTGATCTTGGGTTCTAACCTGTTGCCT (site TATTGATCTAG)”, the “recombinant barcode read abundance (log10)” value came to 0.0711.
The value for “TACTTCGCTTGGGTTCTAACCTGTTGCCT (site CACATCGCTAG)” was 0.042; that for “TACTTCGCTTGGGTTCTAACCTGTTGCCT (site TACTTCGCTAG)” was 0.193.
In the case of “TAGAAAGCTTGGGTTCTAACCTGTTGCCA (site TAGAAAGCTTG)”, the “recombinant barcode read abundance (log10)” value stood at 0.633.
For “TAGAAAGCTTGGGTTCTAACCTGTTGCCA (site TAGGAAGCTTC)” the value was 0.139.
Consider “TAGAACACTTGGGTTCTAACCTGTTGCTC (site TAGAACACTAA)”, for which the “recombinant barcode read abundance (log10)” value is 0.421.
The value for “TAGAACACTTGGGTTCTAACCTGTTGCTC (site TAGAACACTCA)” was 0.151.
The value for “TAGAACACTTGGGTTCTAACCTGTTGCTC (site TAGAACACTGA)” was 0.262.
On to “TAGAACACTTGGGTTCTAACCTGTTGCTC (site TAGAACACTTA)”, for which the “recombinant barcode read abundance (log10)” value was determined as 0.0884.
For “TAGAACACTTGGGTTCTAACCTGTTGCTT (site TAGAACACTAA)” the value was 0.16; for “TAGAACACTTGGGTTCTAACCTGTTGCTT (site TAGAACACTCA)”, 0.0447; for “TAGAACACTTGGGTTCTAACCTGTTGCTT (site TAGAACACTGA)”, 0.153.
The value for “TAGAACACTTGGGTTCTAACCTGTTGCTT (site TAGAACACTTA)” was 0.169.
The value for “TAGAAGACTTGGGTTCTAACCTGTTGCAT (site TAGAAGACTAT)” was 1.01; that for “TAGAAGACTTGGGTTCTAACCTGTTGCAT (site TATAAGACTGT)” was 0.0979.
Take “TAGAAGCCTTGGGTTCTAACCTGTTGCCT (site AAGAAGCCTAG)”: the “recombinant barcode read abundance (log10)” value is 0.248.
For “TAGAAGCCTTGGGTTCTAACCTGTTGCCT (site CAGAAGCCTAG)” the value was 0.43; for “TAGAAGCCTTGGGTTCTAACCTGTTGCCT (site GAGAAGCCTAG)”, 0.06.
For “TAGAAGCCTTGGGTTCTAACCTGTTGCCT (site TAGAAGCCTAG)” the value was 1.11.
For “TAGAAGGCTTGGGTTCTAACCTGTTGCCT (site TAGAAGGCTAA)” the value was 0.139.
Regarding “TAGAAGGCTTGGGTTCTAACCTGTTGCCT (site TAGAAGGCTAC)”, the “recombinant barcode read abundance (log10)” value turned out to be 0.1.
As for “TAGAAGGCTTGGGTTCTAACCTGTTGCCT (site TAGAAGGCTAG)”, the “recombinant barcode read abundance (log10)” value came to 0.216.
Consider “TAGAAGGCTTGGGTTCTAACCTGTTGCCT (site TAGAAGGCTAT)”, for which the “recombinant barcode read abundance (log10)” value was determined as 0.325.
For “TAGAAGGCTTGGGTTCTAACCTGTTGCTT (site TAGAAGGCTAA)” the value was 0.805; for “TAGAAGGCTTGGGTTCTAACCTGTTGCTT (site TAGAAGGCTAC)”, 0.0392; for “TAGAAGGCTTGGGTTCTAACCTGTTGCTT (site TAGAAGGCTAG)”, 0.0656.
The value for “TAGAAGGCTTGGGTTCTAACCTGTTGCTT (site TAGAAGGCTAT)” was 0.28.

For the origin of these results see the supplement of paper PMC11208160.
